# Laboratory results as given in patent US10441616B2, “Pharmaceutical composition for treating or preventing sensorineural hearing loss, containing cysteinyl leukotriene receptor antagonist and ginkgo leaf extract” (AJOU UNIVERSITY INDUSTRY-ACADEMIC COOPERATION FOUNDATION, priority 2014, dated 2019).
# Assays:
# Format in all cases: in vivo, mouse
# [1] = test system: CysLT1 receptor gene; test: PCR of Cysltr1 gene expression in the cochlea after noise exposure; conditions: 3 day after noise exposure, montelukast post-treatment vs noise exposure group
# Description: At 1 day, 3 day, and 7 day, the animal was euthanized with urethane intraperitoneal injection (1 g/kg) and the bilateral temporal bone was immediately removed. Two isolated cochleae were dissolved in a TRIzol solution, the lipid was removed by adding chloroform, and then RNA gene was extracted with isopropanol alcohol. The extracted RNA gene was quantified, mixed with two types of forward and reverse primers and polymerase, and amplified at an average of 35 cycles for each primer through a PCR machine, and then changes in expression level for each gene were compared and analyzed by measuring the fluorescent degree.
# [2] = test system: matrix metalloproteinase-3 (Mmp3); test: Gene and protein expression of Mmp3 in inner ear tissue after noise exposure (FIG. 10)
# [3] = test system: stereocilia of OHC; test: Scanning electron microscopy (SEM) of cochlear hair cells after noise exposure; conditions: basal turn areas corresponding to 32 kHz, montelukast post-treatment compared with only-noise exposed group
# Excerpt: The SEM was used for evaluating the form of the hair cells of the cochlea. The mouse was euthanized after intraperitoneal injection of urethane, and temporal bones were dissected at both sides from the skull in order to obtain the cochlea to be carefully cut. The fenestra rotunda of the obtained cochlea was perforated by using a sharp needle. An outer lymph space was perfused with 2% glutaraldehyde in PBS by positioning a Pasteur pipette having a modified butterfly catheter for the fenestra rotunda. Each sample was left in a glutaraldehyde solution overnight. The samples were perfused with 1% osmium tetroxide and positioned at a tissue rotator for 15 minutes. The samples were rinsed with PBS three times. Under an optical microscope, the bone part of the cochlea was carefully removed and a lateral wall was cut and removed to expose the Corti's organ. The tissue was continuously dehydrated with 50, 70, 90, 95, and 100% acetones. Each specimen was treated with hexamethyldisilazane (HMDS) and dried in air, and positioned in a stove for coating of platinum. The tissue was photographed by JSM-6380 (Jeol, Tokyo, Japan). The damage to the hair cells was analyzed in basal turn areas corresponding to 32 kHz.
# [4] = test system: hair cells; test: Surface preparation / Texas-Red phalloidin staining of hair cells of the Corti's organ after noise exposure; conditions: 1 week after noise exposure, 32 kHz site; montelukast post-treatment group compared with noise exposure group
# Description: The cut cochlea was perfused with 4% PFA in 0.1 M PB and maintained overnight at 4° C. The cochlea was washed with PBS three times for 10 minutes and then decalcified with a 5% EDTA solution for 3 days. After decalcification, an otic capsule was removed and a lateral wall, a Reissner's membrane, and a tectorial membrane were removed under an optical microscope. The Corti's organ (OC) was dyed with Texas Red VR-X phalloidin (T7471; 200 U/mL methanol diluted 1:100 in PBS; Invitrogen, Eugene, Oreg.) for 1 hour. Thereafter, the entire samples were rinsed with PBS and cut and placed on a glass slide by performing a surface treatment method (microdissected into individual turns) and using a mounting solution containing 4′6-diamidino-2-phenilindol (H-1200; 1.5 μg/ml; DAPI; Vector Laboratories). The slide was incubated for at least 15 minutes. The hair cells of the OC were observed by a confocal microscope (LSM510, Carl Zeiss, Jena, Germany).
smiles,measurement,setting,value
CC(C)(O)c1ccccc1CCC(SCC1(CC(=O)[O-])CC1)c1cccc(/C=C/c2ccc3ccc(Cl)cc3n2)c1.[Na+] (centres unmarked) [montelukast],CysLT1 receptor gene (Cysltr1) expression,[1],significantly decreased
same,Mmp3 gene expression level,[2]; montelukast post-treatment after noise exposure (FIG. 10A),reduction
same,Mmp3 protein expression level,"[2]; western blot, montelukast post-treatment after noise exposure (FIG. 10B)",reduction
same,damage to the stereocilia of OHC,[3],significantly reduced
same,hair cell marker (phalloidin),[4],significantly increased
